From US4251524A (priority 1976, dated 1981)

Tested on: Klebsiella pneumoniae; Enterobacter aerogenes sp.; Providencia; Serratia marcescens; E. coli BE; Salmonella sp.; Shigella sp.; Proteus, indole-negative and …
Assay type: cell-based
Conditions: 100 μg/ml, Muller-Hinton nutrient broth with 0.1% glucose, 1×10^5 to 2×10^5 bacteria per ml, 24 hours; all listed cultures

SMILES	freedom from turbidity of bacterial cultures (indicates action)
CC1(C)S[C@@H]2[C@H](NC(=O)[C@H](NC(=O)N3CCN(N=Cc4ccc(Cl)cc4)C3=O)C3=CCC=CC3)C(=O)N2[C@H]1C(=O)O [Example 2.4, sodium 6-{D-α-[(2-oxo-3-{4-chloro}-benzalimino-imidazolidin-1-yl)-carbonylamino]-cyclohex-1,4-dien-1-yl-acetamido}-penicillanate]	free from turbidity
CC=CC=NN1CCN(C(=O)N[C@@H](C(=O)N[C@]2(OC)C(=O)N3C(C(=O)O)=C(COC(C)=O)CS[C@@H]32)c2ccccc2)C1=O [Example 36, 7-methoxy-7-{D-α-[(2-oxo-3-but-2-enylideneamino-imidazolidin-1-yl)-carbonylamino]-phenylacetamido}-3-acetoxymethyl-ceph-3-em-4-carboxylic acid]	free from turbidity
CC1(C)S[C@@H]2[C@H](NC(=O)[C@H](NC(=O)N3CCN(N=Cc4ccc(Cl)cc4)C3=O)c3ccccc3)C(=O)N2[C@H]1C(=O)O [Example 2.3, sodium 6-{D-α-[(2-oxo-3-{4-chloro}-benzalimino-imidazolidin-1-yl)-carbonylamino]-phenylacetamido}-penicillanate]	free from turbidity
CC1(C)S[C@@H]2[C@H](NC(=O)[C@H](NC(=O)N3CCN(N=Cc4ccccc4)C3=O)c3ccccc3)C(=O)N2[C@H]1C(=O)O [Example 1.3, sodium 6-{D-α-[(2-oxo-3-benzalimino-imidazolidin-1yl)-carbonylamino]phenylacetamido}-penicillanate]	free from turbidity
COC1(NC(=O)[C@H](NC(=O)N2CCN(N=Cc3ccco3)C2=O)c2ccccc2)C(=O)N2C(C(=O)O)=C(COC(C)=O)CS[C@@H]21 (some centres unmarked) [Example 36.5]	free from turbidity
